Like-named read-outs stand apart in the source and are kept apart here.
How the values were obtained:
[1] = target: T1, human prostaglandin E2 (subtype EP2) receptor (Homo sapiens, UniProt P43116); test: cAMP antagonism assay (HTRF cAMP detection, in the presence of PGE2); type: cell-based
T1 construct: host or cells: cells in a cell culture plate
Method: (§1) The binding of PGE2 to the EP2 subtype of the human PGE2 receptor induces activation of membrane-associated adenylate cyclases and leads to the formation of cAMP. In the presence of the phosphodiesterase inhibitor IBMX, cAMP which has accumulated due to this stimulation and been released by cell lysis is employed in a competitive detection method. In this assay, the cAMP in the lysate competes with cAMP-XL665 for binding of an Eu cryptate-labeled anti-cAMP antibody.
(§2) The two signals are measured in a suitable measuring instrument with a time lag, i.e. after the background fluorescence has declined.
(§3) The substance solutions (0.75 μl) containing 30% DMSO are introduced into an assay plate and dissolved in 16 μl of a KRSB+IBMX stimulation solution (1× Krebs-Ringer Bicarbonate Buffer; Sigma-Aldrich #K-4002; including 750 μM 3-isobutyl-1-methylxanthine Sigma-Aldrich #I-7018), and then 15 μl thereof are transferred into a media-free cell culture plate which has been washed with KRSB shortly beforehand.
After preincubation at room temperature (RT) for 30 minutes, 5 μl of a 4×PGE2 solution (11 nM) are added, and incubation is carried out in the presence of the agonist at RT for a further 60 min (volume: ˜20 μl) before the reaction is then stopped by adding 5 μl of lysis buffer and incubated at RT for a further 20 min (volume: ˜25 μl). The cell lysate is then transferred into a measuring plate and measured in accordance with the manufacturer's information (cyclic AMP kit Cisbio International #62AMPPEC).

[2] = target: T1, human prostaglandin E2 (subtype EP2) receptor; test: cAMP agonism assay (HTRF cAMP detection); type: cell-based
Method: as §1, §2, §3
After incubation at room temperature (RT; volume: ˜15 μl) for 60 minutes, the reaction is then stopped by adding 5 μl of lysis buffer and incubated at RT for a further 20 min (volume: ˜20 μl). The cell lysate is then transferred into a measuring plate and measured in accordance with the manufacturer's information (cyclic AMP kit Cisbio International #62AMPPEC).

cumulus-oocyte complexes = test: Cumulus expansion assay in vitro; type: cell-based, mice; settings: competing with PGE2
Method: Folliculogenesis is induced in immature female mice (strain: CD1 (ICR) from Charles River) at an age of 14-18 days by a single dose (intraperitoneally) of 10 I.U. of PMSG (Pregnant Mare Serum Gonadotropin; Sigma G-4877, Batch 68H0909). 47-50 hours after the injection, the ovaries are removed and the cumulus-oocyte complexes are removed. The cumulus complex is not yet expanded at this stage.
The cumulus-oocyte complexes are then incubated with prostaglandin E2 (PGE2) (1 μM), vehicle control (ethanol) or test substances for 20-24 hours. Medium: alpha-MEM medium with 0.1 mM IBMX, pyruvates (0.23 mM), glutamines (2 mM), pen/strep (100 IU/ml pen. and 100 μg/ml strep.) and HSA (8 mg/ml). Cumulus expansion is then established through the division into four stages (according to Vanderhyden et al. Dev Biol. 1990 August; 140(2):307-317).

[3] = cAMP antagonism assay, EP2 receptor, in presence of PGE2, read-out: Antagonism [IC50
[4] = cAMP agonism assay, EP2 receptor, read-out: Agonism [ED50

T1 sequence (P43116 whole entry): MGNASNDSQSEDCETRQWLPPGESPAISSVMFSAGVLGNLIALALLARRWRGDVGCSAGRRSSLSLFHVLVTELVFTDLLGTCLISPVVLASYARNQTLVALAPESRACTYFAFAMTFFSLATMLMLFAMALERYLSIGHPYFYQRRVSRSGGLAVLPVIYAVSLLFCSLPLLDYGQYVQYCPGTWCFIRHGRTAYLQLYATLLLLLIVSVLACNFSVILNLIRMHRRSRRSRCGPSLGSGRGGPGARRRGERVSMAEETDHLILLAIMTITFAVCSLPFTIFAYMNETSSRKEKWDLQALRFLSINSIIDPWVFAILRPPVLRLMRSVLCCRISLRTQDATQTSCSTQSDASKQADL

Row | SMILES | IC50 [1, 3] | EC50 [2, 4] | further results
1 | O=C(NC1CCN(c2ccnc3cc(Cl)ccc23)CC1)c1cccc(Cl)c1Cl [Example 25, 2,3-Dichloro-N-[1-(7-chloro-quinolin-4-yl)-piperidin-4-yl)-benzamide] |  | > 19000 nM | IC50 ([1]; antagonism test, read-out: IC50 in the antagonism test): 200 nM; EC50 ([2]; cellular agonism test, read-out: EC50 in the cellular agonism test): > 19000 nM; suppression of cumulus expansion (cumulus-oocyte complexes; one tenth of the concentration (of 100-200 μM)): ~50%
2 | O=C(NC1CCN(c2ccnc3cc(Cl)ccc23)CC1)c1ccc(F)c(F)c1F [Example 20, N-[1-(7-Chloro-quinolin-4-yl)-piperidin-4-yl]-2,3,4-trifluoro-benzamide] | 1600 nM | > 19000 nM | 
3 | O=C(NC1CCN(c2ccnc3cc(Cl)ccc23)CC1)c1ccccc1I [Example 10, N-[1-(7-Chloro-quinolin-4-yl)-piperidin-4-yl]-2-iodo-benzamide] | 1300 nM |  | 
4 | O=C(NC1CCN(c2ccnc3cc(Cl)ccc23)CC1)c1ccccc1Cl [Example 4, 2-Chloro-N-[1-(7-chloro-quinolin-4-yl)-piperidin-4-yl]-benzamide] | 1000 nM | > 19000 nM | 
5 | O=C(NC1CCN(c2ccnc3cc(Cl)ccc23)CC1)c1ccccc1Br [Example 1, 2-Bromo-N-[1-(7-chloro-quinolin-4-yl)-piperidin-4-yl]-benzamide] | 600 nM | > 19000 nM | 
6 | O=C(NC1CCN(c2ccnc3cc(Cl)ccc23)CC1)c1ccc([N+](=O)[O-])o1 [Example 26, 5-Nitro-furan-2-carboxylic acid [1-(7-chloro-quinolin-4-yl)-piperidin-4-yl]-amide] | 2000 nM | > 19000 nM | 
7 | O=C(NC1CCN(c2ccnc3cc(C(F)(F)F)ccc23)CC1)c1cccc(Cl)c1Cl [Example 34, 2,3-Dichloro-N-[1-(7-trifluoromethyl-quinolin-4-yl)-piperidin-4-yl]-benzamide] | 200 nM | > 19000 nM | 
8 | CC(C)Oc1ccc2c(=O)c3cc(C(=O)O)ccc3oc2c1 [AH 6809, reference compound] |  |  | suppression of cumulus expansion (cumulus-oocyte complexes; concentration of 100-200 μM): about 20%

More lines, main results first:

Row | IC50 [1, 3] | EC50 [2, 4] | SMILES | further results
9 | 600 nM | > 19000 nM | O=C(NC1CCN(c2ncnc3cc(Cl)ccc23)CC1)c1cccc(Cl)c1Cl [Example 37, 2,3-Dichloro-N-[1-(7-chloro-quinazolin-4-yl)-piperidin-4-yl]-benzamide] | 
10 | 100 nM | > 19000 nM | O=C(NC1CCN(c2ccnc3c(Cl)cccc23)CC1)c1cccc(Cl)c1Cl [Example 35, 2,3-Dichloro-N-[1-(8-chloro-quinolin-4-yl)-piperidin-4-yl]-benzamide] | 
11 | 100 nM | > 19000 nM | O=C(NC1CCN(c2ccnc3cc(Br)ccc23)CC1)c1cccc(Cl)c1Cl [Example 36, N-[1-(7-Bromo-quinolin-4-yl)-piperidin-4-yl]-2,3-dichloro-benzamide] | 
12 | 900 nM | > 19000 nM | N#Cc1ccc2c(N3CCC(NC(=O)c4cccc(Cl)c4Cl)CC3)ccnc2c1 [Example 40, 2,3-Dichloro-N-[1-(7-cyano-quinolin-4-yl)-piperidin-4-yl]-benzamide] | 
